In ChEMBL document CHEMBL5543144, “Discovery of a Novel Potent Tetrazole Antifungal Candidate with High Selectivity and Broad Spectrum” (J Med Chem, 2024):
≈ marks a conversion by molar mass, not a printed value.

How the values were obtained:
Type in all cases: functional
Pichia kudriavzevii = assay: Antifungal activity against Candida krusei 4946 assessed as inhibition of fungal growth incubated for 24 hrs by CLSI protocol based microbroth dilution method
Candida tropicalis = assay: Antifungal activity against Candida tropicalis 2718 assessed as inhibition of fungal growth incubated for 24 hrs by CLSI protocol based microbroth dilution method
Nakaseomyces glabratus = assay: Antifungal activity against Candida glabrata 537 assessed as inhibition of fungal growth incubated for 48 hrs by CLSI protocol based microbroth dilution method
Candida albicans = assay: Antifungal activity against Candida albicans SC5314 assessed as inhibition of fungal growth incubated for 24 hrs by CLSI protocol based microbroth dilution method
Cryptococcus neoformans = assay: Antifungal activity against Cryptococcus neoformans H99 assessed as inhibition of fungal growth incubated for 72 hrs by CLSI protocol based microbroth dilution method
Aspergillus fumigatus = assay: Antifungal activity against Aspergillus fumigatus 7544 assessed as inhibition of fungal growth incubated for 48 hrs by CLSI protocol based microbroth dilution method
Candida parapsilosis = assay: Antifungal activity against Candida parapsilosis 22019 assessed as inhibition of fungal growth incubated for 24 hrs by CLSI protocol based microbroth dilution method; settings: Lodderomyces parapsilosis
[Candida] auris [1] = Antifungal activity against fluconazole resistant Candida auris 888 assessed as inhibition of fungal growth incubated for 48 hrs by CLSI protocol based microbroth dilution method; settings: Candidozyma auris
[Candida] auris [2] = Antifungal activity against fluconazole resistant Candida auris BS12372 assessed as inhibition of fungal growth incubated for 48 hrs by CLSI protocol based microbroth dilution method; settings: Candidozyma auris
[Candida] auris [3] = Antifungal activity against fluconazole resistant Candida auris 791 assessed as inhibition of fungal growth incubated for 48 hrs by CLSI protocol based microbroth dilution method; settings: Candidozyma auris
[Candida] auris [4] = Antifungal activity against fluconazole resistant Candida auris 789 assessed as inhibition of fungal growth incubated for 48 hrs by CLSI protocol based microbroth dilution method; settings: Candidozyma auris
[Candida] auris [5] = Antifungal activity against fluconazole resistant Candida auris D12 assessed as inhibition of fungal growth incubated for 48 hrs by CLSI protocol based microbroth dilution method; settings: Candidozyma auris
[Candida] auris [6] = Antifungal activity against fluconazole resistant Candida auris 887 assessed as inhibition of fungal growth incubated for 48 hrs by CLSI protocol based microbroth dilution method; settings: Candidozyma auris

MIC50 (Pichia kudriavzevii) [µg/mL] | MIC50 (Candida tropicalis) [µg/mL] | MIC50 (Nakaseomyces glabratus) [µg/mL] | MIC50 (Candida albicans) [µg/mL] | MIC50 (Cryptococcus neoformans) [µg/mL] | MIC50 (Aspergillus fumigatus) [µg/mL] | MIC50 (Candida parapsilosis) [µg/mL] | Structure (SMILES) | MIC50 ([Candida] auris [1]) [µg/mL] | MIC50 ([Candida] auris [2]) [µg/mL] | MIC50 ([Candida] auris [3]) [µg/mL] | MIC50 ([Candida] auris [4]) [µg/mL] | MIC50 ([Candida] auris [5]) [µg/mL] | MIC50 ([Candida] auris [6]) [µg/mL]
0.063 (≈ 0.136 µM) | < 0.008 | < 0.008 | < 0.008 | < 0.008 | 0.5 (≈ 1.08 µM) | < 0.008 | C[C@@H](n1ccc2cc(C(F)(F)F)ccc2c1=O)[C@](O)(Cn1cncn1)c1ccc(F)cc1F |  |  |  |  |  | 
8 (≈ 16.6 µM) | 1 (≈ 2.08 µM) | 4 (≈ 8.31 µM) | 0.25 (≈ 0.519 µM) | 2 (≈ 4.15 µM) | > 64 | 2 (≈ 4.15 µM) | C[C@@H](n1ncc2cn(-c3ccc(F)cc3)nc2c1=O)[C@](O)(Cn1cncn1)c1ccc(F)cc1F |  |  |  |  |  | 
1 (≈ 2.52 µM) | 0.063 (≈ 0.159 µM) | 0.031 (≈ 0.078 µM) | 0.008 (≈ 0.0201 µM) | 0.063 (≈ 0.159 µM) | 4 (≈ 10.1 µM) | 0.063 (≈ 0.159 µM) | C[C@@H](n1ncc2ccccc2c1=O)[C@](O)(Cn1cncn1)c1ccc(F)cc1F |  |  |  |  |  | 
> 64 | 0.5 (≈ 0.913 µM) | 1 (≈ 1.83 µM) | 0.5 (≈ 0.913 µM) | > 64 | > 64 | 0.5 (≈ 0.913 µM) | C[C@@H](n1ncc2cn(-c3ccc(OC(F)(F)F)cc3)nc2c1=O)[C@](O)(Cn1cncn1)c1ccc(F)cc1F |  |  |  |  |  | 
> 64 | 1 (≈ 2.01 µM) | 1 (≈ 2.01 µM) | 0.5 (≈ 1 µM) | 4 (≈ 8.03 µM) | > 64 | 1 (≈ 2.01 µM) | C[C@@H](n1ncc2cn(-c3ccc(Cl)cc3)nc2c1=O)[C@](O)(Cn1cncn1)c1ccc(F)cc1F |  |  |  |  |  | 
0.016 (≈ 0.0386 µM) | < 0.008 | 0.016 (≈ 0.0386 µM) | < 0.008 | < 0.008 | 0.25 (≈ 0.603 µM) | < 0.008 | C[C@@H](n1ccc2cc(F)ccc2c1=O)[C@](O)(Cn1cncn1)c1ccc(F)cc1F |  |  |  |  |  | 
> 64 | 1 (≈ 2.05 µM) | 0.5 (≈ 1.02 µM) | 0.5 (≈ 1.02 µM) | 8 (≈ 16.4 µM) | > 64 | 1 (≈ 2.05 µM) | C[C@@H](n1ncc2cn(-c3ccc(C#N)cc3)nc2c1=O)[C@](O)(Cn1cncn1)c1ccc(F)cc1F |  |  |  |  |  | 
> 64 | 0.5 (≈ 0.969 µM) | 8 (≈ 15.5 µM) | 0.5 (≈ 0.969 µM) | > 64 | > 64 | 2 (≈ 3.88 µM) | C[C@@H](n1ncc2cn(-c3ccc(F)c(Cl)c3)nc2c1=O)[C@](O)(Cn1cncn1)c1ccc(F)cc1F |  |  |  |  |  | 
0.125 (≈ 0.289 µM) | < 0.008 | < 0.008 | < 0.008 | < 0.008 | 0.25 (≈ 0.579 µM) | < 0.008 | C[C@@H](n1ncc2cc(Cl)ccc2c1=O)[C@](O)(Cn1cncn1)c1cc(F)ccc1F |  |  |  |  |  | 
0.125 (≈ 0.302 µM) | < 0.008 | < 0.008 | < 0.008 | < 0.008 | 0.25 (≈ 0.603 µM) | < 0.008 | C[C@@H](n1ccc2cc(F)ccc2c1=O)[C@](O)(Cn1cncn1)c1cc(F)ccc1F |  |  |  |  |  | 
0.063 (≈ 0.133 µM) | < 0.008 | < 0.008 | < 0.008 | < 0.008 | 1 (≈ 2.1 µM) | < 0.008 | C[C@@H](n1ccc2cc(Br)ccc2c1=O)[C@](O)(Cn1cncn1)c1ccc(F)cc1F |  |  |  |  |  | 
> 4 | 0.031 (≈ 0.0643 µM) | < 0.008 | < 0.008 | 0.125 (≈ 0.259 µM) | 32 (≈ 66.3 µM) | 0.25 (≈ 0.518 µM) | C[C@@H](n1cnc2cc(OC(F)(F)F)ccc2c1=O)[C@](O)(Cn1cnnn1)c1ccc(F)cc1F |  |  |  |  |  | 
0.125 (≈ 0.315 µM) | 0.016 (≈ 0.0404 µM) | 0.016 (≈ 0.0404 µM) | < 0.008 | 0.016 (≈ 0.0404 µM) | 0.5 (≈ 1.26 µM) | 0.016 (≈ 0.0404 µM) | C[C@@H](n1ccc2ccccc2c1=O)[C@](O)(Cn1cncn1)c1ccc(F)cc1F |  |  |  |  |  | 

Structure (SMILES) | MIC50 (Pichia kudriavzevii) [µg/mL] | MIC50 (Candida tropicalis) [µg/mL] | MIC50 (Nakaseomyces glabratus) [µg/mL] | MIC50 (Candida albicans) [µg/mL] | MIC50 (Cryptococcus neoformans) [µg/mL] | MIC50 (Aspergillus fumigatus) [µg/mL] | MIC50 (Candida parapsilosis) [µg/mL] | MIC50 ([Candida] auris [1]) [µg/mL] | MIC50 ([Candida] auris [2]) [µg/mL] | MIC50 ([Candida] auris [3]) [µg/mL] | MIC50 ([Candida] auris [4]) [µg/mL] | MIC50 ([Candida] auris [5]) [µg/mL] | MIC50 ([Candida] auris [6]) [µg/mL]
C[C@@H](c1ncncc1F)[C@](O)(Cn1cncn1)c1ccc(F)cc1F [VORICONAZOLE] | 0.063 (≈ 0.18 µM) | < 0.008 | < 0.008 | < 0.008 | 0.063 (≈ 0.18 µM) | 0.25 (≈ 0.716 µM) | 0.016 (≈ 0.0458 µM) | 2 (≈ 5.73 µM) | 2 (≈ 5.73 µM) | 4 (≈ 11.5 µM) | 2 (≈ 5.73 µM) | 2 (≈ 5.73 µM) | 2 (≈ 5.73 µM)
C[C@@H](n1cnc2cc(Cl)ccc2c1=O)[C@](O)(Cn1cnnn1)c1ccc(F)cc1F | 0.25 (≈ 0.578 µM) | < 0.008 | 0.031 (≈ 0.0716 µM) | < 0.008 | 2 (≈ 4.62 µM) | 8 (≈ 18.5 µM) | 0.063 (≈ 0.146 µM) | 16 (≈ 37 µM) | 8 (≈ 18.5 µM) | 32 (≈ 73.9 µM) | 16 (≈ 37 µM) | 8 (≈ 18.5 µM) | 32 (≈ 73.9 µM)
